Laboratory results from US7932050B2, “Enzymatic substrates derived from phenoxazinone and their use as developers in detection of microorganisms with peptidase activity” (bioMerieux, priority 2004, dated 2011).

Assays:
Type in all cases: cell-based
[1] = test system: Ralstonia taiwanensis; details: between 24 and 48 h of incubation
[2] = test system: Acinetobacter calcoaceticus; assay: Detection of pyroglutamyl peptidase activity (example 10), colony coloration; details: between 24 and 48 h of incubation
[3] = test system: Pseudomonas aeruginosa; assay: as above; details: between 24 and 48 h of incubation, no accession No.
[4] = test system: Pseudomonas fluorescens; assay: as above; details: between 24 and 48 h of incubation
[5] = test system: Pseudomonas maltophilia; assay: as above; details: between 24 and 48 h of incubation
[6] = test system: Pseudomonas fragilis NCIMB 8987; assay: as above; details: between 24 and 48 h of incubation; strain NCIMB 8987
[7] = test system: Ralstonia basilensis; details: between 24 and 48 h of incubation
[8] = test system: Burkholderia cepacia GIII LMG 18832; assay: Detection of pyroglutamyl peptidase activity (example 10), colony coloration; details: between 24 and 48 h of incubation; strain LMG 18832
[9] = test system: Acinetobacter baumannii ATCC 19606; assay: as above; details: between 24 and 48 h of incubation; strain ATCC 19606
[10] = test system: Burkholderia cepacia GI LMG1222; assay: as above; details: between 24 and 48 h of incubation; strain LMG1222
[11] = first P. aeruginosa strain of table 3 (r6)
[12] = second P. aeruginosa strain of table 3 (r8)
[13] = third P. aeruginosa strain of table 3 (r10)

SMILES	coloration [1]	coloration [2]	coloration [3, 11]	coloration [3, 12]	coloration [3, 13]	coloration [4]	coloration [5]	coloration [6]	coloration [7]	coloration [8]	coloration [9]	coloration [10]
CCCCCc1c2nc3ccc(NC(=O)[C@@H]4CCC(=O)N4)cc3oc-2cc(=O)c1Cl [Chlorinated pyroglutamyl compound, 7-N-(L-pyroglutamyl)amino-2-chloro-1-pentylphenoxazin-3-one]	colorless	colorless	purple	purple	purple	colorless	colorless	colorless	colorless	yellow	colorless	yellow
CCCCCc1cc(=O)cc2oc3cc(NC(=O)[C@@H]4CCC(=O)N4)ccc3nc1-2 [Nonchlorinated pyroglutamyl compound, 7-N-(L-pyroglutamyl)amino-1-pentylphenoxazin-3-one]	colorless	colorless	purple	purple	purple	colorless	colorless	colorless	colorless	yellow	colorless	yellow
